# In ChEMBL document CHEMBL1933058, “5-(2-amino-pyrimidin-4-yl)-1H-pyrrole and 2-(2-amino-pyrimidin-4-yl)-1,5,6,7-tetrahydro-pyrrolo[3,2-c]pyridin-4-one derivatives as new classes of selective and orally available Polo-like kinase 1 inhibitors” (Bioorg Med Chem Lett, 2012):
# Legend:
# [1] = target: Inhibitor of nuclear factor kappa-B kinase subunit beta (Homo sapiens, UniProt O14920); assay: Inhibition of IKK2
# [2] = target: High affinity nerve growth factor receptor (Homo sapiens, UniProt P04629); assay: Inhibition of TRKA
# [3] = target: Serine/threonine-protein kinase PAK 4 (Homo sapiens, UniProt O96013); assay: Inhibition of PAK4
# LNCaP = assay: Antiproliferative activity against human LNCAP cells; type: functional, cell-based
# [4] = target: Hepatocyte growth factor receptor (Homo sapiens, UniProt P08581); assay: Inhibition of MET
# MDA-MB-468 = assay: Antiproliferative activity against human MDA-MB-468 cells; type: functional, cell-based
# [5] = target: Tyrosine-protein kinase ABL1 (Homo sapiens, UniProt P00519); assay: Inhibition of c-ABL
# [6] = Inhibition of NIM
# [7] = target: Cyclin-dependent kinase 4/cyclin D1 (Homo sapiens, UniProt P11802); assay: Inhibition of CDK4/cyclin D1; type: protein-complex assay
# [8] = target: RAC-alpha serine/threonine-protein kinase (Homo sapiens, UniProt P31749); assay: Inhibition of AKT1
# Aurora kinase A = target: T1, Aurora kinase A (Homo sapiens, UniProt O14965); assay: Inhibition of Aurora-A
# T1 sequence (O14965 whole entry): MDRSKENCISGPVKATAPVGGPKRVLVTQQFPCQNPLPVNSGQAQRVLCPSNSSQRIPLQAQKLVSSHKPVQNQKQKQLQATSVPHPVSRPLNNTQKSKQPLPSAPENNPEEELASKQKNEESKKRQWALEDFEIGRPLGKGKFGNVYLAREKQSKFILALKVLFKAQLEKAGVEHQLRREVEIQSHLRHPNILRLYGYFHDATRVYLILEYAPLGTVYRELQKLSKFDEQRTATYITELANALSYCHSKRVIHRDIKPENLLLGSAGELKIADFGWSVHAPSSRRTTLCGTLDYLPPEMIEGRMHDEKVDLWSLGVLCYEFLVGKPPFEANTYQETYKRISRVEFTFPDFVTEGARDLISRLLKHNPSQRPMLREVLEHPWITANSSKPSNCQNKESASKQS
# [9] = target: Serine/threonine-protein kinase PLK3 (Homo sapiens, UniProt Q9H4B4); assay: Inhibition of PLK3
# K562 = assay: Antiproliferative activity against human K562 cells; type: functional, cell-based
# [10] = Tmax in Nu/Nu Balb Harlan mouse at 10 mg/kg, po; type: ADME, organism-based; set-up: dose 10 mg/kg, route oral; conditions: in vivo
# HCT-116 = assay: Antiproliferative activity against human HCT116 cells; type: functional, cell-based
# [11] = Inhibition of PDGFR
# [12] = target: Serine/threonine-protein kinase Nek6 (Homo sapiens, UniProt Q9HC98); assay: Inhibition of NEK6
# [13] = target: Insulin-like growth factor 1 receptor (Homo sapiens, UniProt P08069); assay: Inhibition of IGFR1
# [14] = target: Cyclin-dependent kinase 1/cyclin B1 (Homo sapiens, UniProt P06493); assay: Inhibition of CDK1/cyclin B; type: protein-complex assay
# [15] = target: Serine/threonine-protein kinase PLK2 (Homo sapiens, UniProt Q9NYY3); assay: Inhibition of PLK2
# [16] = target: Cell division cycle 7-related protein kinase (Homo sapiens, UniProt O00311); assay: Inhibition of CDC7
# [17] = Intrinsic clearance in rat hepatocytes at 1 uM; type: ADME, cell-based, Liver, Hepatocyte; conditions: read-out: CLH
# [18] = target: Cyclin-dependent kinase 2/cyclin A (Homo sapiens, UniProt P24941); assay: Inhibition of CDK2/cyclin A; type: protein-complex assay
# [19] = target: Protein kinase C beta type (Homo sapiens, UniProt P05771); assay: Inhibition of PKCbeta
# [20] = Solubility of the compound at pH 7; type: physicochemical; conditions: buffer
# [21] = target: Cyclin-dependent kinase 2/cyclin E1 (Homo sapiens, UniProt P24941); assay: Inhibition of CDK2/cyclin E; type: protein-complex assay
# [22] = target: Tyrosine-protein kinase Lck (Homo sapiens, UniProt P06239); assay: Inhibition of LCK
# [23] = target: cAMP-dependent protein kinase catalytic subunit alpha (Homo sapiens, UniProt P17612); assay: Inhibition of PKAalpha
# [24] = target: Proto-oncogene tyrosine-protein kinase receptor Ret (Homo sapiens, UniProt P07949); assay: Inhibition of RET
# [25] = target: Serine/threonine-protein kinase 26 (Homo sapiens, UniProt Q9P289); assay: Inhibition of MST4
# MOLT-4 = assay: Antiproliferative activity against human MOLT4 cells; type: functional, cell-based
# [26] = Apparent permeability of the compound by PAMPA; type: ADME
# [27] = target: Tyrosine-protein kinase JAK2 (Homo sapiens, UniProt O60674); assay: Inhibition of JAK2
# [28] = target: Mast/stem cell growth factor receptor Kit (Homo sapiens, UniProt P10721); assay: Inhibition of KIT
# [29] = target: Epidermal growth factor receptor (Homo sapiens, UniProt P04626+P00533+Q15303+P21860); assay: Inhibition of EGFR1; type: protein assay
# A2780 = assay: Antiproliferative activity against human A2780 cells; type: functional, cell-based
# [30] = target: Mitogen-activated protein kinase 1 (Homo sapiens, UniProt P28482); assay: Inhibition of ERK2
# [31] = target: Protein-tyrosine kinase 6 (Homo sapiens, UniProt Q13882); assay: Inhibition of BRK
# MOLM-13 = assay: Antiproliferative activity against human MOLM13 cells; type: functional, cell-based
# [32] = target: Fibroblast growth factor receptor 1 (Homo sapiens, UniProt P11362); assay: Inhibition of FGFR1
# [33] = Intrinsic clearance in human liver microsomes at 1 uM; type: ADME, Microsome; conditions: read-out: CLH
# A-375 = assay: Antiproliferative activity against human A375 cells; type: functional, cell-based
# [34] = Inhibition of CK2
# [35] = target: Vascular endothelial growth factor receptor 3 (Homo sapiens, UniProt P35916); assay: Inhibition of VEGFR3
# [36] = Inhibition of SULU1
# [37] = target: Serine/threonine-protein kinase Chk1 (Homo sapiens, UniProt O14757); assay: Inhibition of CHK1
# Insulin receptor = Insulin receptor (Homo sapiens, UniProt P06213); assay: Inhibition of IR
# [38] = target: Cyclin-dependent kinase 5 activator 1 (Homo sapiens, UniProt Q15078); assay: Inhibition of CDK5/P25
# [39] = Antiproliferative activity against human SUP-M2 cells; type: functional, cell-based
# [40] = target: Glycogen synthase kinase-3 beta (Homo sapiens, UniProt P49841); assay: Inhibition of GSK3-beta
# Aurora kinase B = Aurora kinase B (Homo sapiens, UniProt Q96GD4); assay: Inhibition of Aurora-B
# [41] = target: Mitogen-activated protein kinase 14 (Homo sapiens, UniProt Q16539); assay: Inhibition of P38alpha
# Caco-2 = assay: Apparent permeability across human Caco2 cells; type: ADME, cell-based
# [42] = target: Vascular endothelial growth factor receptor 2 (Homo sapiens, UniProt P35968); assay: Inhibition of VEGFR2
# [43] = target: MAP kinase-activated protein kinase 2 (Homo sapiens, UniProt P49137); assay: Inhibition of MAP-KAPK2
# Sequence of MAP kinase-activated protein kinase 2 (P49137 whole entry): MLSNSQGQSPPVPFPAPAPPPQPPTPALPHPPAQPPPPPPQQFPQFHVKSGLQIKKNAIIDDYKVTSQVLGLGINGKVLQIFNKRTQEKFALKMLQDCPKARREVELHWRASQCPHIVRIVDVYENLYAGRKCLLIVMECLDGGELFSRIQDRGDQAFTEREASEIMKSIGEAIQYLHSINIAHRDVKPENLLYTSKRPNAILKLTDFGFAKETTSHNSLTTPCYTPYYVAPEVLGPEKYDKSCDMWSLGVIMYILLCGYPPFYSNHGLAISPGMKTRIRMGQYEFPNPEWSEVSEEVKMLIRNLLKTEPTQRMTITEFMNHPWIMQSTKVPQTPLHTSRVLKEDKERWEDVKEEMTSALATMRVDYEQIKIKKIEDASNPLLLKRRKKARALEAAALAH
# Sequence of Serine/threonine-protein kinase PLK2 (Q9NYY3 whole entry): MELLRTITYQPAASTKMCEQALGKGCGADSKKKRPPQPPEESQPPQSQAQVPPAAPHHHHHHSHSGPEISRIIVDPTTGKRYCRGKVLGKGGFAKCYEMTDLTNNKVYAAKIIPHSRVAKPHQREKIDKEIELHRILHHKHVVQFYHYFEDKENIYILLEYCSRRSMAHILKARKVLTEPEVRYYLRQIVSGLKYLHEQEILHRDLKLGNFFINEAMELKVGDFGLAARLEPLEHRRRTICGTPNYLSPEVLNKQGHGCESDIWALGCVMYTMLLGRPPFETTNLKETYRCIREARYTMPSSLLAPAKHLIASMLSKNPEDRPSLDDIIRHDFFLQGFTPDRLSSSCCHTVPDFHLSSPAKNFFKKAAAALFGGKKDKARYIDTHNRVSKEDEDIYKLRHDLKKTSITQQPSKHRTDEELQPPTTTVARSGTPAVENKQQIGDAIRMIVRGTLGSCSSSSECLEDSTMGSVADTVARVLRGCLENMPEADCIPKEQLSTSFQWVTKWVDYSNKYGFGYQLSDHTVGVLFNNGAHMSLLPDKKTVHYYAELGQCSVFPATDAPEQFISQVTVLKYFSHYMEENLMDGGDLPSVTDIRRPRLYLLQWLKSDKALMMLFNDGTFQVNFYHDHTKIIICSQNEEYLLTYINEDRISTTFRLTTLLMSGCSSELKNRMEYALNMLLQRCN
# Sequence of Inhibitor of nuclear factor kappa-B kinase subunit beta (O14920 whole entry): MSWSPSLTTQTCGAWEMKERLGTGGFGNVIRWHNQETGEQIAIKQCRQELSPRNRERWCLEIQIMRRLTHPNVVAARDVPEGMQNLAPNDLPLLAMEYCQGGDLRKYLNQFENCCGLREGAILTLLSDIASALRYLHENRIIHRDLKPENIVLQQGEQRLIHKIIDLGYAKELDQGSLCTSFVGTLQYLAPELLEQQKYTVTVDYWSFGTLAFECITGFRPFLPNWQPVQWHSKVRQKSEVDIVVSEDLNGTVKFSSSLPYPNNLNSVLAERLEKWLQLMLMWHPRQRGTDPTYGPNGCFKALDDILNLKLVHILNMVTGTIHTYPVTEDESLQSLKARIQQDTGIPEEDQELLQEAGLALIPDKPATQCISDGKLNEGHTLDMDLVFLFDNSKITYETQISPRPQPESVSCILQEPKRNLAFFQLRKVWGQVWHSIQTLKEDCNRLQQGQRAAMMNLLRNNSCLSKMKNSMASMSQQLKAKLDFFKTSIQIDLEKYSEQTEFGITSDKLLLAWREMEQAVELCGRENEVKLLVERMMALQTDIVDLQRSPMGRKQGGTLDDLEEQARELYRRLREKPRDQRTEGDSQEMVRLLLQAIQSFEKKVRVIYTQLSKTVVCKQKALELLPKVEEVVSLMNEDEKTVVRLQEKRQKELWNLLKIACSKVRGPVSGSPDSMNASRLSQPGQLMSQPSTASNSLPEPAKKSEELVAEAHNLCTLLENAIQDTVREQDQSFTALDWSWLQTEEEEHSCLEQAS
# Sequence of Tyrosine-protein kinase Lck (P06239 whole entry): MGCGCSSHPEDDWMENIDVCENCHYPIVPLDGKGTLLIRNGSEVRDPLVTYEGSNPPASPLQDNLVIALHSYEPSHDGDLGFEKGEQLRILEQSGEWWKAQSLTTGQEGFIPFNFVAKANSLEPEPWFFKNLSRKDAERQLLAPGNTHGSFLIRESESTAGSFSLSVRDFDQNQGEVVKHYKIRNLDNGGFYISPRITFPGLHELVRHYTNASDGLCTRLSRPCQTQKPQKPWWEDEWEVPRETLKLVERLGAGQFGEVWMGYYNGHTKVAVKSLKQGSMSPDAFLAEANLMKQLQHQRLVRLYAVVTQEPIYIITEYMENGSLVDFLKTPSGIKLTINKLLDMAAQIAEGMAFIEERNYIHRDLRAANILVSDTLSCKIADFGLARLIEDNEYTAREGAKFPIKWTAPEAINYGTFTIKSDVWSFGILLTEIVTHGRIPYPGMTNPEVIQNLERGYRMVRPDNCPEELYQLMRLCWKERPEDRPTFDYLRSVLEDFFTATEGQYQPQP
# Sequence of Mitogen-activated protein kinase 14 (Q16539 whole entry): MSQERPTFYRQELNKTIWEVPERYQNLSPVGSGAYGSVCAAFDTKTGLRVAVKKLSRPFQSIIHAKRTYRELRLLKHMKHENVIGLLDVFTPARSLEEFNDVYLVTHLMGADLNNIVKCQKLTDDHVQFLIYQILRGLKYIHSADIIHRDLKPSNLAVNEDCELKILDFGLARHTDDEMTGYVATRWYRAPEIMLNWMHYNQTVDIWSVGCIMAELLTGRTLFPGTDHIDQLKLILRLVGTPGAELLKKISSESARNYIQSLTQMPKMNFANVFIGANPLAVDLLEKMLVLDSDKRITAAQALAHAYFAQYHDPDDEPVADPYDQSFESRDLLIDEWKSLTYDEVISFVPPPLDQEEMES
# Sequence of Serine/threonine-protein kinase Nek6 (Q9HC98 whole entry): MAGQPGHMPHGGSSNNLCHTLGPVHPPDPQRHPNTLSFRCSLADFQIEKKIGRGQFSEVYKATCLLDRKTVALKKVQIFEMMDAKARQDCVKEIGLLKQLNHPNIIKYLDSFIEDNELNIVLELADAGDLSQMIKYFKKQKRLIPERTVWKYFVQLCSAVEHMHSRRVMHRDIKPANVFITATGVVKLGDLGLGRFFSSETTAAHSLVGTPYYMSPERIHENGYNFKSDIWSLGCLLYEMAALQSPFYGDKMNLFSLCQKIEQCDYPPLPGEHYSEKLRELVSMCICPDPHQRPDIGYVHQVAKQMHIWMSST
# Sequence of Vascular endothelial growth factor receptor 3 (P35916 whole entry): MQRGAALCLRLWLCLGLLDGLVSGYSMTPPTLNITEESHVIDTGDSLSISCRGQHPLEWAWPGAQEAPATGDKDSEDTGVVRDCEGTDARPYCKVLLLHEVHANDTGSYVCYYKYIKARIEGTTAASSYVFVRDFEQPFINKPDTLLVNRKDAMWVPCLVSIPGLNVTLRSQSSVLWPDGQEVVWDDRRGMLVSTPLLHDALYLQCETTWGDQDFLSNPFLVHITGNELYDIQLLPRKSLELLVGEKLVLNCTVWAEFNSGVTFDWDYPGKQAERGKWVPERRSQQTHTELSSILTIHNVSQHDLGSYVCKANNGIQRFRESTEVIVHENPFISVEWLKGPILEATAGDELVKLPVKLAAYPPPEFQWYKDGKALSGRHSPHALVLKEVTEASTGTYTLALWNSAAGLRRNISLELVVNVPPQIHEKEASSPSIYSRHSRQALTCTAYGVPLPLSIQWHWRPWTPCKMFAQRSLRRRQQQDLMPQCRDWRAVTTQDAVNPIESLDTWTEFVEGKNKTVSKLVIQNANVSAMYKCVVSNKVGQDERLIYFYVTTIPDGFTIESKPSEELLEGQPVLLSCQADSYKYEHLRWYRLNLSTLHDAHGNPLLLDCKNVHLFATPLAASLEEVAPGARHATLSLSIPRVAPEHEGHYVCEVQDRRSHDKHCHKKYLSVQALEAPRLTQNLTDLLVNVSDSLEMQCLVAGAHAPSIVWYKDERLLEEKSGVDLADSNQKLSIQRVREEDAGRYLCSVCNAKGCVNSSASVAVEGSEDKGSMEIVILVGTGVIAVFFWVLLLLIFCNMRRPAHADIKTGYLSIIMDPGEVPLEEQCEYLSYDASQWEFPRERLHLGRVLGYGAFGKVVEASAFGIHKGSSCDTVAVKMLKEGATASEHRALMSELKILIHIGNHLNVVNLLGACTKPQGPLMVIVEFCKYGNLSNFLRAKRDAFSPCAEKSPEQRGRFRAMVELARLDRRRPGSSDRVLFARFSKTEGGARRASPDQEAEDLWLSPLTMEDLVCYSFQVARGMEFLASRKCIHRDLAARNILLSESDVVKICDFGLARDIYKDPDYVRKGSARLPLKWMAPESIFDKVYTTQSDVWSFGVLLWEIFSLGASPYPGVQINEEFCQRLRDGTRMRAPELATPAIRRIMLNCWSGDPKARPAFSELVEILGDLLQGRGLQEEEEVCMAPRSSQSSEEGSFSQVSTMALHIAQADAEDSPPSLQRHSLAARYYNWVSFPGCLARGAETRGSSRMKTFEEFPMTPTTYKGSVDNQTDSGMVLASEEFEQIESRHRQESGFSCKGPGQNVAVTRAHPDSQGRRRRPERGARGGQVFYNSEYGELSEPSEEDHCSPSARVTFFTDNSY
# Sequence of Cyclin-dependent kinase 4/cyclin D1 (P11802 whole entry): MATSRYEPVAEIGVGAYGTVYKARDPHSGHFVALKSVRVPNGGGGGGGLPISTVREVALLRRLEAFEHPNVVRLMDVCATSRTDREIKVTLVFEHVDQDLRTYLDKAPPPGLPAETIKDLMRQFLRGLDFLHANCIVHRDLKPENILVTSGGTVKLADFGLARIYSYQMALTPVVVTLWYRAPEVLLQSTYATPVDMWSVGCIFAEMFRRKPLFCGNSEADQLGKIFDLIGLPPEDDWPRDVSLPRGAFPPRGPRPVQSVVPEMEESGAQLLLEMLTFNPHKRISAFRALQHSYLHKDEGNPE
# Sequence of Cyclin-dependent kinase 4/cyclin D1 (P24385 whole entry, further chain): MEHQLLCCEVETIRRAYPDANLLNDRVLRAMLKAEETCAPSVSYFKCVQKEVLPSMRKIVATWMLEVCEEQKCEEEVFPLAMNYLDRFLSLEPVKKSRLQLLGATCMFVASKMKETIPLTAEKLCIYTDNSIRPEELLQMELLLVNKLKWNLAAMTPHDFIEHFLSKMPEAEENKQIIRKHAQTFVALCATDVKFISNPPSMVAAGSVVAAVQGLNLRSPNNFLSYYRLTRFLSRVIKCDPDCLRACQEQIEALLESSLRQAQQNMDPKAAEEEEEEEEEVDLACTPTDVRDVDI
compound,measurement,setting,value
CN1CCN(c2ccc(OC(F)(F)F)c(Nc3nccc(-c4cc(C(N)=O)cn4C)n3)c2)CC1,IC50,[1],> 10 µM
same,IC50,[2],> 10 µM
same,IC50,[3],> 10 µM
same,IC50,LNCaP,0.28 µM
same,IC50,[4],> 10 µM
same,IC50,MDA-MB-468,0.624 µM
same,IC50,[5],> 10 µM
same,IC50,[6],> 10 µM
same,IC50,[7],> 10 µM
same,IC50,[8],> 10 µM
same,IC50,Aurora kinase A,> 10 µM
same,IC50,[9],> 10 µM
same,IC50,K562,0.59 µM
same,Tmax,[10],30 min
same,IC50,HCT-116,0.52 µM
same,IC50,[11],> 10 µM
same,IC50,[12],> 10 µM
same,IC50,[13],> 10 µM
same,IC50,[14],> 10 µM
same,IC50,[15],> 10 µM
same,IC50,[16],> 10 µM
same,CLint scaled at 1 µM,[17],408 mL/min/kg
same,IC50,[18],> 10 µM
same,IC50,[19],> 10 µM
same,solubility,[20],174 µM
same,IC50,[21],> 10 µM
same,IC50,[22],> 10 µM
same,IC50,[23],> 10 µM
same,IC50,[24],> 10 µM
same,IC50,[25],> 10 µM
same,IC50,MOLT-4,0.253 µM
same,Papp,[26],50 ×10⁻⁶ cm/s
same,IC50,[27],> 10 µM
same,IC50,[28],> 10 µM
same,IC50,[29],> 10 µM
same,IC50,A2780,0.36 µM
same,IC50,[30],> 10 µM
same,IC50,[31],> 10 µM
same,IC50,MOLM-13,0.201 µM
same,IC50,[32],> 10 µM
same,CLint scaled at 1 µM,[33],14.9 mL/min/kg
same,IC50,A-375,0.386 µM
same,IC50,[34],0.951 µM
same,IC50,[35],> 10 µM
same,IC50,[36],> 10 µM
same,IC50,[37],> 10 µM
same,IC50,Insulin receptor,> 10 µM
same,IC50,[38],> 10 µM
same,IC50,[39],0.647 µM
same,IC50,[40],> 10 µM
same,IC50,Aurora kinase B,> 10 µM
same,IC50,[41],> 10 µM
same,Papp,Caco-2,permeable
same,IC50,[42],> 10 µM
same,IC50,[43],> 10 µM
